The source of these data is patent US20230123334A1, “AMINO LIPID COMPOUND, PREPARATION METHOD THEREFOR, AND APPLICATION THEREOF” (SHENZHEN SHENXIN BIOTECHNOLOGY CO., LTD., priority 2020, published 2023).

The structures appear in SMILES notation.

The first test deals with MCF7 cells. The experiment in a line: Transfection of MCF7 cell line, mRNA vectors. It is filed as cell-based. To be noted: 50 ng EGFP mRNA per well. As for the experimental part:
(§1) Cell line: MCF7 cells (ATCC HTB-22)
Medium: DMEM supplemented with 10 fetal bovine serum (Invitrogen)
(§2) Screening: cell transfection on 96-well plates
Detection (readout): percentage of the number of GFP fluorescent cells relative to the total number of cells (the total number of cells was determined using nucleus dye Hoechst). Lipofectamine2000 (Invitrogen) was used as the positive control.
Method: the experimental method was basically the same with Example 4, and the mass of EGFP mRNA (TriLink) for transfection was 50 ng per well.
For `CCCCCCCCCCCCCNc1nc(NCCCN2CCN(C)CC2)nc(SCCCCCCCC)n1` [Compound S8N13D9], the “Absolute mRNA transfection efficiency in MCF7 cells” value is 13.3%.
The same measure, in the same setting: as for `CCCCCCCCCCCCCNc1nc(NCC2CCN(C)CC2)nc(SCCCCCCCC)n1` [Compound S8N13D10], the figure is 23.0%; as for `CCCCCCCCCNc1nc(NCCN2CCCC2)nc(SCCCCCCCCC)n1` [Compound S9N9D3], 12.1%.
On the same count and under the same terms, in the case of `CCCCCCCCCNc1nc(NCCN2CCN(C)CC2)nc(SCCCCCCCCC)n1` [Compound S9N9D5] it was 8.3%; in that of `CCCCCCCCCNc1nc(NCCCN(C)C)nc(SCCCCCCCCC)n1` [Compound S9N9D6], 30.7%; in that of `CCCCCCCCCNc1nc(NCCCN2CCOCC2)nc(SCCCCCCCCC)n1` [Compound S9N9D8], 2.6%.
The same measure, in the same setting: as for `CCCCCCCCCNc1nc(NCCCN2CCN(C)CC2)nc(SCCCCCCCCC)n1` [Compound S9N9D9], the figure is 21.0%; as for `CCCCCCCCCNc1nc(NCC2CCN(C)CC2)nc(SCCCCCCCCC)n1` [Compound S9N9D10], 29.6%; as for `CCCCCCCCCCCCCCCCSc1nc(NCCN2CCCC2)nc(SCCCCCCCCC)n1` [Compound S9S16D3], 3.0%.

Another test has as its system Hela cells. The experiment in a line: Transfection of Hela cell line, mRNA vectors. It is filed as cell-based. The following applies: 50 ng EGFP mRNA per well. In outline: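 HeLa cells in DMEM with 10% FBS transfected with 50 ng EGFP mRNA per well. Readout is percentage of GFP-positive cells among total cells counted by Hoechst nuclear stain; Lipofectamine2000 served as positive control.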
With `CCCCCCCCCCCCCNc1nc(NCCCN2CCN(C)CC2)nc(SCCCCCCCC)n1` [Compound S8N13D9], the “Absolute mRNA transfection efficiency in Hela cells” value came to 13.4%.
The same measure, in the same setting: in the case of `CCCCCCCCCCCCCNc1nc(NCC2CCN(C)CC2)nc(SCCCCCCCC)n1` [Compound S8N13D10] it was 9.5%; in that of `CCCCCCCCCNc1nc(NCCN2CCCC2)nc(SCCCCCCCCC)n1` [Compound S9N9D3], 27.4%.
The same measure, in the same setting: in the case of `CCCCCCCCCNc1nc(NCCN2CCN(C)CC2)nc(SCCCCCCCCC)n1` [Compound S9N9D5] it was 23.9%; in that of `CCCCCCCCCNc1nc(NCCCN(C)C)nc(SCCCCCCCCC)n1` [Compound S9N9D6], 30.3%.
Turning to `CCCCCCCCCNc1nc(NCCCN2CCOCC2)nc(SCCCCCCCCC)n1` [Compound S9N9D8], the “Absolute mRNA transfection efficiency in Hela cells” value amounted to 7.4%.
In the case of `CCCCCCCCCNc1nc(NCCCN2CCN(C)CC2)nc(SCCCCCCCCC)n1` [Compound S9N9D9], the “Absolute mRNA transfection efficiency in Hela cells” value was determined as 25.6%.
The same measure, in the same setting: in the case of `CCCCCCCCCNc1nc(NCC2CCN(C)CC2)nc(SCCCCCCCCC)n1` [Compound S9N9D10] it was 17.6%; in that of `CCCCCCCCCCCCCCCCSc1nc(NCCN2CCCC2)nc(SCCCCCCCCC)n1` [Compound S9S16D3], 0.0%.

The subject of another test is HEK293 cells. The experiment in a line: Preliminary screening as mRNA vectors, EGFP mRNA transfection of HEK293 cells. It is filed as cell-based. To be noted: HEK293 cells, 96-well plates, EGFP mRNA 50 ng per well; percentage of GFP fluorescent cells relative to total number of cells (Hoechst). In outline: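 Each well of HEK293 cells received 50 ng of EGFP mRNA. Efficiency was expressed as percent GFP-expressing cells over Hoechst-defined total cell number.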
As to `CCCCCCCCCCCCCCCCSc1nc(NCCN2CCCC2)nc(SCCCCCCCCC)n1` [Compound S9S16D3], the “Absolute mRNA transfection efficiency in HEK293 cells” value is 25.3%.

A further test has as its system Hela cells. The test is described as follows: Transfection of Hela cell line, DNA vectors. It is filed as cell-based. The following applies: 75 ng plasmid DNA, GFP cells / total cells. In outline:
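Amino lipid/DOPE liposomes in sodium acetate pH 5.6 were complexed with 75 ng psin-EGFP-IRES-Puro plasmid for 30 min at room temperature, then mixed with 3-5×10^4 Hela cells in DMEM/10% FBS at 37° C. Hoechst stain after 20-24 h, imaging after a further 20-24 h. Efficiency = GFP-positive cells / total nuclei.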
As to `CCCCCCCCCCCCCNc1nc(NCCCN2CCN(C)CC2)nc(SCCCCCCCC)n1` [Compound S8N13D9], the “Absolute DNA transfection efficiency in Hela cells” value is listed as 13.9%.
The same measure, in the same setting: as for `CCCCCCCCCCCCCNc1nc(NCC2CCN(C)CC2)nc(SCCCCCCCC)n1` [Compound S8N13D10], the figure is 9.5%; as for `CCCCCCCCCNc1nc(NCCN2CCCC2)nc(SCCCCCCCCC)n1` [Compound S9N9D3], 27.4%; as for `CCCCCCCCCNc1nc(NCCN2CCN(C)CC2)nc(SCCCCCCCCC)n1` [Compound S9N9D5], 23.9%.
The same measure, in the same setting: as for `CCCCCCCCCNc1nc(NCCCN(C)C)nc(SCCCCCCCCC)n1` [Compound S9N9D6], the figure is 30.3%; as for `CCCCCCCCCNc1nc(NCCCN2CCOCC2)nc(SCCCCCCCCC)n1` [Compound S9N9D8], 7.4%.
The same measure, in the same setting: as for `CCCCCCCCCNc1nc(NCCCN2CCN(C)CC2)nc(SCCCCCCCCC)n1` [Compound S9N9D9], the figure is 25.6%; as for `CCCCCCCCCNc1nc(NCC2CCN(C)CC2)nc(SCCCCCCCCC)n1` [Compound S9N9D10], 17.6%.
With `CCCCCCCCCCCCCCCCSc1nc(NCCN2CCCC2)nc(SCCCCCCCCC)n1` [Compound S9S16D3], the “Absolute DNA transfection efficiency in Hela cells” value was 0.0%.

In the next test the test system is HEK293 cells. The test is described as follows: Preliminary screening as DNA vectors, GFP transfection of HEK293 cells. The format is cell-based. To be noted: HEK293 cells; lipid/DOPE liposome with 75 ng plasmid DNA (psin-EGFP-IRES-Puro); number of cells expressing GFP divided by total number of nuclei (Hoechst). In outline:
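Lipid + DOPE liposomes (NaOAc, pH 5.6) complexed w/ 75 ng psin-EGFP-IRES-Puro, 30 min RT; added to 3-5×10^4 HEK293/well, 37° C. Hoechst 0.2 μg/mL at 20-24 h, imaged after further 20-24 h. Efficiency = GFP+ cells / total nuclei.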
For the compound `CCCCCCCCCCCCCCCCSc1nc(NCCN2CCCC2)nc(SCCCCCCCCC)n1` [Compound S9S16D3], the “Absolute DNA transfection efficiency in HEK293 cells” value is 0.0%.

The subject of a further test is MCF7 cells. The test is described as follows: Transfection of MCF7 cell line, DNA vectors. The format is cell-based. On the set-up: concentration or dose not given beside the values. To be noted: plasmid DNA, GFP cells / total cells. How it is done: as §1
Medium DMEM supplemented with […] fetal bovine serum
as §2
Detection (readout): percentage of the number of GFP fluorescent cells relative to the total number of cells (the total number of cells was determined using nucleus dye Hoechst). Lipofectamine2000 was used as the positive control, according to the manufacturer's instructions.
Method: the experimental method was basically the same with Example 4.
Regarding `CCCCCCCCCCCCCNc1nc(NCCCN2CCN(C)CC2)nc(SCCCCCCCC)n1` [Compound S8N13D9], the “Absolute DNA transfection efficiency in MCF7 cells” value amounted to 25.8%.
The same measure, in the same setting: in the case of `CCCCCCCCCCCCCNc1nc(NCC2CCN(C)CC2)nc(SCCCCCCCC)n1` [Compound S8N13D10] it was 41.7%; in that of `CCCCCCCCCNc1nc(NCCN2CCCC2)nc(SCCCCCCCCC)n1` [Compound S9N9D3], 8.6%; in that of `CCCCCCCCCNc1nc(NCCN2CCN(C)CC2)nc(SCCCCCCCCC)n1` [Compound S9N9D5], 21.2%.
Regarding `CCCCCCCCCNc1nc(NCCCN(C)C)nc(SCCCCCCCCC)n1` [Compound S9N9D6], the “Absolute DNA transfection efficiency in MCF7 cells” value is reported as 11.0%.
On to `CCCCCCCCCNc1nc(NCCCN2CCOCC2)nc(SCCCCCCCCC)n1` [Compound S9N9D8], for which the “Absolute DNA transfection efficiency in MCF7 cells” value is reported as 7.8%.
Consider `CCCCCCCCCNc1nc(NCCCN2CCN(C)CC2)nc(SCCCCCCCCC)n1` [Compound S9N9D9], for which the “Absolute DNA transfection efficiency in MCF7 cells” value is 42.3%.
Same read-out and setting: as for `CCCCCCCCCNc1nc(NCC2CCN(C)CC2)nc(SCCCCCCCCC)n1` [Compound S9N9D10], the figure is 38.9%; as for `CCCCCCCCCCCCCCCCSc1nc(NCCN2CCCC2)nc(SCCCCCCCCC)n1` [Compound S9S16D3], 14.1%.
